From patent publication US20050060764A1, “Mouse model for bone metabolism” (priority 2003, published 2005)
Strand notation (5' to 3'): a small letter for the sugar, then the base; units joined by * are phosphorothioate-linked, units joined directly phosphodiester-linked; [ ] holds rarer units or linkages, { } end groups; capitals alone tell only the bases. e = 2'-O-(2-methoxyethyl) (MOE); [5mC] = 5-methylcytosine; d = 2'-deoxy (DNA)

System: mouse RANKL mRNA
Assay: Antisense inhibition of mouse RANKL mRNA levels in C2C12 cells, quantitative real-time PCR (Table 2)
Type: cell-based
Design: concentration or dose not given beside the values
Conditions: averages from three experiments
Protocol: Cells were seeded into 24-well plates (Falcon-353047 at a density of ˜10,000 cells/cm^2 for use in antisense oligonucleotide transfection.
Cells are treated and data are obtained in triplicate. […] Cells were harvested 16-24 hours after oligonucleotide treatment.
PCR reagents were obtained from Invitrogen Corporation, (Carlsbad, Calif.).
Probes and primers to mouse RANKL were designed to hybridize to a mouse RANKL sequence, using published sequence information (GenBank accession number AF013170.1, incorporated herein as SEQ ID NO:ll). For mouse RANKL the PCR primers were: • forward primer: […] (SEQ ID NO:12) • reverse primer: […] (SEQ ID NO: 13) and • the PCR probe was: FAM-[…]-TAMRA (SEQ ID NO: 14) where FAM is the fluorescent reporter dye and TAMRA is the quencher dye. For mouse GAPDH the PCR primers were: • forward primer: […](SEQ ID NO:15) • reverse primer: […](SEQ ID NO:16) and the • PCR probe was: 5′ JOE-[…]-TAMRA 3′ (SEQ ID NO: 17) where JOE is the fluorescent reporter dye and TAMRA is the quencher dye.
In accordance with the present invention, a second series of antisense compounds was designed to target different regions of the mouse RANKL RNA, using published sequences (GenBank accession number AF013170.1, incorporated herein as SEQ ID NO: 11). […] All cytidine residues are 5-methylcytidines. […] If present “N.D.” indicates “no data”.

Substance	% INHIB (inhibition of mouse RANKL mRNA levels)
180805 (antisense eG*eG*e[5mC]*eT*eT*dG*d[5mC]*d[5mC]*dT*d[5mC]*dG*d[5mC]*dT*dG*dG*eG*e[5mC]*e[5mC]*eA*e[5mC]) [compound 180805]	62%
180808 (antisense eA*eG*e[5mC]*eT*eG*dA*dA*dG*dA*dT*dA*dG*dT*d[5mC]*dT*eG*eT*eA*eG*eG) [compound 180808]	74%
180810 (antisense eT*e[5mC]*eA*eG*eA*dA*dT*dT*dG*d[5mC]*d[5mC]*d[5mC]*dG*dA*d[5mC]*e[5mC]*eA*eG*eT*eT) [compound 180810]	83%
180811 (antisense eA*eT*eG*e[5mC]*eT*dA*dA*dT*dT*dT*d[5mC]*dT*dT*d[5mC]*dA*e[5mC]*e[5mC]*eA*eG*e[5mC]) [compound 180811]	67%
180813 (antisense eA*eT*eG*eT*eT*d[5mC]*d[5mC]*dA*d[5mC]*dG*dA*dA*dA*dT*dG*eA*eG*eT*e[5mC]*eT) [compound 180813]	48%
180815 (antisense eT*e[5mC]*eA*eT*eA*d[5mC]*dA*d[5mC]*d[5mC]*dG*dT*dG*dG*dG*d[5mC]*e[5mC]*eA*eT*eG*eT) [compound 180815]	30%
180816 (antisense eA*e[5mC]*e[5mC]*eG*eT*dT*dG*dT*dG*dT*dA*dA*dT*d[5mC]*dA*e[5mC]*e[5mC]*eA*eT*eG) [compound 180816]	35%
180817 (antisense eG*e[5mC]*eA*eT*e[5mC]*dG*dG*dA*dA*dT*dA*d[5mC]*d[5mC]*dT*d[5mC]*eT*e[5mC]*e[5mC]*e[5mC]*eA) [compound 180817]	51%
180818 (antisense eT*e[5mC]*eA*eG*eT*dG*dG*d[5mC]*dA*d[5mC]*dA*dT*dG*dT*d[5mC]*e[5mC]*eA*eG*eG*eG) [compound 180818]	59%
180820 (antisense e[5mC]*eT*eT*eA*eT*dT*dT*dG*d[5mC]*dA*dG*dG*dT*d[5mC]*d[5mC]*e[5mC]*eA*eG*e[5mC]*eG) [compound 180820]	44%
180821 (antisense e[5mC]*eA*eT*eT*eA*d[5mC]*dA*d[5mC]*d[5mC]*dT*dG*dA*dA*dA*dT*eA*eT*eA*eA*e[5mC]) [compound 180821]	15%
180822 (antisense eA*eA*eT*e[5mC]*eA*dA*dA*dT*dA*d[5mC]*dT*dA*dT*dA*dG*e[5mC]*eA*e[5mC]*eA*eA) [compound 180822]	24%
180823 (antisense eT*eA*eA*eA*eT*dA*dT*dT*dT*dT*dG*dA*dA*dT*d[5mC]*eA*eA*eA*eT*eA) [compound 180823]	9%
180824 (antisense eT*eG*eT*e[5mC]*eA*dA*d[5mC]*dA*dG*dT*dG*dA*dG*dA*d[5mC]*eA*eT*eT*eT*eT) [compound 180824]	29%
180825 (antisense eG*eT*eA*e[5mC]*eA*dT*dT*dT*dA*dA*dA*dA*d[5mC]*dA*dT*eT*eA*eA*eA*eT) [compound 180825]	25%
180826 (antisense eT*eA*e[5mC]*eA*eA*dA*dG*dT*dG*d[5mC]*dA*d[5mC]*d[5mC]*dA*dG*eT*eT*eA*eA*eA) [compound 180826]	33%
180827 (antisense eA*eG*e[5mC]*eT*eA*d[5mC]*dG*dA*dG*dT*dA*d[5mC]*d[5mC]*dT*dT*e[5mC]*eA*eG*eG*eG) [compound 180827]	54%
180829 (antisense eA*eA*eG*eG*e[5mC]*dA*d[5mC]*d[5mC]*dT*dG*dG*dT*dG*dA*d[5mC]*e[5mC]*eA*eA*e[5mC]*eA) [compound 180829]	23%

Substance	% INHIB (inhibition of mouse RANKL mRNA levels)
180830 (antisense eT*eG*eA*eA*eA*dG*dG*d[5mC]*dA*d[5mC]*d[5mC]*dT*dG*dG*dT*eG*eA*e[5mC]*e[5mC]*eA) [compound 180830]	5%
180831 (antisense e[5mC]*e[5mC]*eT*eG*eA*d[5mC]*dA*dG*dA*dT*dT*dT*d[5mC]*dA*dG*eT*eA*eG*e[5mC]*e[5mC]) [compound 180831]	54%
180832 (antisense eG*eG*eA*eA*eA*dA*dA*dA*dA*dA*dG*dA*dA*dA*d[5mC]*e[5mC]*eA*eA*eA*eA) [compound 180832]	0%
180833 (antisense e[5mC]*eA*eG*eA*eG*dA*d[5mC]*dA*dA*dT*dG*d[5mC]*dT*dT*dT*eT*eA*eT*eT*eG) [compound 180833]	22%
aacatggagcgggaggcggc (antisense eA*eA*e[5mC]*eA*eT*dG*dG*dA*dG*d[5mC]*dG*dG*dG*dA*dG*eG*e[5mC]*eG*eG*e[5mC]) [ISIS 180801, 2′-MOE gapmer targeted to mouse RANKL]	at least 40%
acatggagcgggaggcggcg (antisense eA*e[5mC]*eA*eT*eG*dG*dA*dG*d[5mC]*dG*dG*dG*dA*dG*dG*e[5mC]*eG*eG*e[5mC]*eG) [ISIS 180800, 2′-MOE gapmer targeted to mouse RANKL]	at least 40%
agcagactccgccacggccc (antisense eA*eG*e[5mC]*eA*eG*dA*d[5mC]*dT*d[5mC]*d[5mC]*dG*d[5mC]*d[5mC]*dA*d[5mC]*eG*eG*e[5mC]*e[5mC]*e[5mC]) [ISIS 180790, 2′-MOE gapmer targeted to mouse RANKL]	at least 40%
agctacgagtaccttcaggg (antisense eA*eG*e[5mC]*eT*eA*d[5mC]*dG*dA*dG*dT*dA*d[5mC]*d[5mC]*dT*dT*e[5mC]*eA*eG*eG*eG) [ISIS 180827, 2′-MOE gapmer targeted to mouse RANKL]	at least 40%
agctgaagatagtctgtagg (antisense eA*eG*e[5mC]*eT*eG*dA*dA*dG*dA*dT*dA*dG*dT*d[5mC]*dT*eG*eT*eA*eG*eG) [ISIS 180808, 2′-MOE gapmer targeted to mouse RANKL]	at least 40%
atgctaatttcttcaccagc (antisense eA*eT*eG*e[5mC]*eT*dA*dA*dT*dT*dT*d[5mC]*dT*dT*d[5mC]*dA*e[5mC]*e[5mC]*eA*eG*e[5mC]) [ISIS 180811, 2′-MOE gapmer targeted to mouse RANKL]	at least 40%
atgttccacgaaatgagtct (antisense eA*eT*eG*eT*eT*d[5mC]*d[5mC]*dA*d[5mC]*dG*dA*dA*dA*dT*dG*eA*eG*eT*e[5mC]*eT) [ISIS 180813, 2′-MOE gapmer targeted to mouse RANKL]	at least 40%
cagttccttctgcacggccc (antisense e[5mC]*eA*eG*eT*eT*d[5mC]*d[5mC]*dT*dT*d[5mC]*dT*dG*d[5mC]*dA*d[5mC]*eG*eG*e[5mC]*e[5mC]*e[5mC]) [ISIS 180804, 2′-MOE gapmer targeted to mouse RANKL]	at least 40%
ccgccgagcagactccgcca (antisense e[5mC]*e[5mC]*eG*e[5mC]*e[5mC]*dG*dA*dG*d[5mC]*dA*dG*dA*d[5mC]*dT*d[5mC]*e[5mC]*eG*e[5mC]*e[5mC]*eA) [ISIS 180791, 2′-MOE gapmer targeted to mouse RANKL]	at least 40%
cctgacagatttcagtagcc (antisense e[5mC]*e[5mC]*eT*eG*eA*d[5mC]*dA*dG*dA*dT*dT*dT*d[5mC]*dA*dG*eT*eA*eG*e[5mC]*e[5mC]) [ISIS 180831, 2′-MOE gapmer targeted to mouse RANKL]	at least 40%
cgggaggeggcgggtggcgg (antisense e[5mC]*eG*eG*eG*eA*dG*dG*d[5mC]*dG*dG*d[5mC]*dG*dG*dG*dT*eG*eG*e[5mC]*eG*eG) [ISIS 180799, 2′-MOE gapmer targeted to mouse RANKL]	at least 40%
cttatttgcaggtcccagcg (antisense e[5mC]*eT*eT*eA*eT*dT*dT*dG*d[5mC]*dA*dG*dG*dT*d[5mC]*d[5mC]*e[5mC]*eA*eG*e[5mC]*eG) [ISIS 180820, 2′-MOE gapmer targeted to mouse RANKL]	at least 40%
gcatcggaatacctctccca (antisense eG*e[5mC]*eA*eT*e[5mC]*dG*dG*dA*dA*dT*dA*d[5mC]*d[5mC]*dT*d[5mC]*eT*e[5mC]*e[5mC]*e[5mC]*eA) [ISIS 180817, 2′-MOE gapmer targeted to mouse RANKL]	at least 40%
gccctgctccgcgatcgttc (antisense eG*e[5mC]*e[5mC]*e[5mC]*eT*dG*d[5mC]*dT*d[5mC]*d[5mC]*dG*d[5mC]*dG*dA*dT*e[5mC]*eG*eT*eT*e[5mC]) [ISIS 180793, 2′-MOE gapmer targeted to mouse RANKL]	at least 40%
